Test results reported in patent publication US20210283107A1, “Methods to Expand the Spectrum of Gram-Positive Antibiotics” (NORTH CAROLINA STATE UNIVERSITY, priority 2016, published 2021).
Like-named read-outs stand apart in the source and are kept apart here.

Assays:
Format in all cases: cell-based, Acinetobacter baumannii
A. baumannii strain 4498 = assay: Potentiation of clarithromycin and vancomycin against clinical isolate; conditions: with compound at 30 μM
Procedure: (§1) As previously stated, A. baumannii 5075 was chosen for these studies due to its virulence and multidrug resistance, but to further analyze the activity of our lead compounds, 23 A. baumannii clinical isolates obtained from Walter Reed Army Institute of Research (WRAIR) were tested.
(§2) Day Cultures (6 h) were subcultured to 5×10^5 CFU/mL in cation adjusted Mueller-Hinton broth (CAMHB). […] One milliliter of the resulting solution was aliquoted into a separate culture tube and was dosed with antibiotic so that the resulting concentration was the highest desirable concentration to be tested. Bacteria treated with antibiotic alone were used as a control. Row one of a 96-well plate was filled with 200 μL of the antibiotic/compound solution, and the remaining rows were filled with 100 μL of the remaining 4 mL bacterial subculture. The wells in row one were mixed five times before 100 μL was transferred to the following row (row two). Row two was then mixed five times, and 100 μL was transferred to row three. This process was repeated until the second to last row had been reached. The last row is left unexposed to antibiotic in order to serve as a negative control. The antibiotic only treated bacteria was plated by aliquoting 200 μL of the treated bacteria into row one and filling the remaining rows with untreated bacteria from the original bacteria subculture. The rows were mixed in the same way as described above. Plates were covered with Glad Press n'Seal and were incubated under stationary conditions at 37° C. for 16 hours. MIC values were recorded as the lowest concentration at which no bacterial growth was observed. Fold reductions were determined by comparison of the compound treated wells with the antibiotic only treated control wells.

A. baumannii strain 5001 = assay: as above; conditions: with compound at 30 μM
Procedure: as §1, §2

A. baumannii strain 3927 = assay: as above; conditions: with compound at 30 μM
Procedure: as §1, §2

A. baumannii strain 4025 = assay: as above; conditions: with compound at 30 μM
Procedure: as §1, §2

A. baumannii strain 4991 = assay: as above; conditions: with compound at 30 μM
Procedure: as §1, §2

A. baumannii strain 4269 = assay: as above; conditions: with compound at 30 μM
Procedure: as §1, §2

A. baumannii strain 4448 = assay: as above; conditions: with compound at 30 μM
Procedure: as §1, §2

A. baumannii strain 5256 = assay: as above; conditions: with compound at 30 μM
Procedure: as §1, §2

A. baumannii strain 4456 = assay: as above; conditions: with compound at 30 μM
Procedure: as §1, §2

A. baumannii strain 4490 = assay: as above; conditions: with compound at 30 μM
Procedure: as §1, §2

[1] = tested on: A. baumannii strain 5075 (AB5075); assay: Macrolide sensitization / antibiotic resensitization: antibiotic MIC in presence of compound (broth microdilution); conditions: for MIC: Acinetobacter baumannii; for potentiation of vancomycin: compound at 10 μM; for reduction in vancomycin MIC (fold): compound at 20 μM; for Josamycin MIC / Oleandomycin MIC / Spiramycin MIC / Troleandomycin MIC: in presence of compound (concentration not given in Table 7); for Amikacin MIC / Gentamicin MIC / Kanamycin MIC / Neomycin MIC / Streptomycin MIC / Tobramycin MIC: in presence of compound (concentration not given in Table 12); for Fold reduction of josamycin MIC: in the presence of compound (concentration not given)
Procedure, shortened: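 A. baumannii AB5075 at 5×10^5 CFU/mL in CAMHB held a fixed compound level while antibiotic was serially diluted. After 16-18 h static at 37° C, MIC was the lowest antibiotic concentration without visible growth. Fold-reduction is relative to antibiotic alone, from duplicates repeated at least twice.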

[2] = compound at 10 μM vs colistin alone, AB5075
[3] = compound at 30 μM vs antibiotic alone, AB5075
[4] = in presence of compound at 4 μM, AB5075
[5] = in presence of compound at 5 μM, AB5075
[6] = in presence of compound at 10 μM, AB5075
[7] = in presence of compound at 15 μM, AB5075
[8] = in presence of compound at 20 μM, AB5075
[9] = in presence of compound at 30 μM, AB5075

**Q.** What does the source list for `Nc1nc(-c2ccc(NC(=O)c3cc(Cl)cc(Cl)c3)cc2)c[nH]1` [Compound 1]?
**A.** Clarithromycin MIC (A. baumannii strain 4498): ≤0.25 µg/mL; Vancomycin MIC (A. baumannii strain 4498): 1 µg/mL; Clarithromycin MIC (A. baumannii strain 5001): 0.5 µg/mL; Vancomycin MIC (A. baumannii strain 5001): 2 µg/mL; Clarithromycin MIC (A. baumannii strain 3927): 0.5 µg/mL; Vancomycin MIC (A. baumannii strain 3927): 8 µg/mL; Clarithromycin MIC (A. baumannii strain 4025): 0.25 µg/mL; Vancomycin MIC (A. baumannii strain 4025): 2 µg/mL; Clarithromycin MIC (A. baumannii strain 4991): 0.5 µg/mL; Vancomycin MIC (A. baumannii strain 4991): 32 µg/mL; Clarithromycin MIC (A. baumannii strain 4269): ≤0.25 µg/mL; Vancomycin MIC (A. baumannii strain 4269): 2 µg/mL; Clarithromycin MIC (A. baumannii strain 4448): ≤0.25 µg/mL; Vancomycin MIC (A. baumannii strain 4448): 1 µg/mL; Clarithromycin MIC (A. baumannii strain 5256): 0.25 µg/mL; Vancomycin MIC (A. baumannii strain 5256): 2 µg/mL; Clarithromycin MIC (A. baumannii strain 4456): 0.5 µg/mL; Vancomycin MIC (A. baumannii strain 4456): 16 µg/mL; Clarithromycin MIC (A. baumannii strain 4490): 0.5 µg/mL; Vancomycin MIC (A. baumannii strain 4490): 1 µg/mL; MIC ([1]; read-out: Daptomycm MIC (μg/mL)): 16 µg/mL; Fold Increase (colistin MIC) [1, 2]: 8 fold; potentiation of vancomycin ([1]; AB5075): no potentiation activity observed; reduction in vancomycin MIC (fold) ([1]; AB5075): 32 fold; Fold Reduction (daptomycin MIC) [1, 3]: 128 fold; Fold Reduction (vancomycin MIC) [1, 3]: 256 fold; Fold Increase (colistin MIC) ([1]; compound at 30 μM vs colistin alone, AB5075): 32 fold; Josamycin MIC ([1]; AB5075): 8 µg/mL; Oleandomycin MIC ([1]; AB5075): 64 µg/mL; Spiramycin MIC ([1]; AB5075): 128 µg/mL; Troleandomycin MIC ([1]; AB5075): 32 µg/mL; Amikacin MIC ([1]; AB5075): 128 µg/mL; Gentamicin MIC ([1]; AB5075): >512 µg/mL; Kanamycin MIC ([1]; AB5075): >512 µg/mL; Neomycin MIC ([1]; AB5075): 16 µg/mL; Streptomycin MIC ([1]; AB5075): 256 µg/mL; Tobramycin MIC ([1]; AB5075): 64 µg/mL; Azithromycin MIC [1, 4]: 32 µg/mL; Vancomycin MIC [1, 4]: 256 µg/mL; Azithromycin MIC [1, 5]: 32 µg/mL; Vancomycin MIC [1, 5]: 256 µg/mL; Azithromycin MIC [1, 6]: 16 µg/mL; Vancomycin MIC [1, 6]: 256 µg/mL; Azithromycin MIC [1, 7]: 16 µg/mL; Vancomycin MIC [1, 7]: 64 µg/mL; Azithromycin MIC [1, 8]: 16 µg/mL; Vancomycin MIC [1, 8]: 8 µg/mL; Azithromycin MIC [1, 9]: 8 µg/mL; Colistin MIC [1, 9]: 16 µg/mL; Linezolid MIC [1, 9]: 128 µg/mL; Vancomycin MIC [1, 9]: 1 µg/mL; Fold reduction of josamycin MIC ([1]; AB5075): 16 fold

**Q.** With `Nc1nc(-c2ccc(NC(=O)c3cc(Br)cc(Br)c3)cc2)c[nH]1` [Compound 4] as the compound, how does the “Clarithromycin MIC” value (A. baumannii strain 4498) read?
**A.** ≤0.25 µg/mL

**Q.** What about the “Vancomycin MIC” value (A. baumannii strain 4498) of the same compound?
**A.** 16 µg/mL

**Q.** What about the “Clarithromycin MIC” value (A. baumannii strain 5001) of the same compound?
**A.** 0.5 µg/mL

**Q.** And the “Vancomycin MIC” value (A. baumannii strain 5001)?
**A.** 1 µg/mL

**Q.** And the “Clarithromycin MIC” value (A. baumannii strain 3927)?
**A.** 0.5 µg/mL

**Q.** What about the “Vancomycin MIC” value (A. baumannii strain 3927) of the same compound?
**A.** 64 µg/mL

**Q.** What about the “Clarithromycin MIC” value (A. baumannii strain 4025) of the same compound?
**A.** 0.25 µg/mL

**Q.** What about the “Vancomycin MIC” value (A. baumannii strain 4025) of the same compound?
**A.** 16 µg/mL

**Q.** What about the “Clarithromycin MIC” value (A. baumannii strain 4991) of the same compound?
**A.** 0.5 µg/mL

**Q.** What about the “Vancomycin MIC” value (A. baumannii strain 4991) of the same compound?
**A.** 32 µg/mL

**Q.** What about the “Clarithromycin MIC” value (A. baumannii strain 4269) of the same compound?
**A.** ≤0.25 µg/mL

**Q.** What about the “Vancomycin MIC” value (A. baumannii strain 4269) of the same compound?
**A.** 64 µg/mL

**Q.** And the “Clarithromycin MIC” value (A. baumannii strain 4448)?
**A.** ≤0.25 µg/mL

**Q.** And the “Vancomycin MIC” value (A. baumannii strain 4448)?
**A.** 4 µg/mL

**Q.** What about the “Clarithromycin MIC” value (A. baumannii strain 5256) of the same compound?
**A.** 0.25 µg/mL

**Q.** What about the “Vancomycin MIC” value (A. baumannii strain 5256) of the same compound?
**A.** 8 µg/mL

**Q.** What about the “Clarithromycin MIC” value (A. baumannii strain 4456) of the same compound?
**A.** ≤0.25 µg/mL

**Q.** And the “Vancomycin MIC” value (A. baumannii strain 4456)?
**A.** 64 µg/mL

**Q.** And the “Clarithromycin MIC” value (A. baumannii strain 4490)?
**A.** ≤0.25 µg/mL

**Q.** And the “Vancomycin MIC” value (A. baumannii strain 4490)?
**A.** 8 µg/mL

**Q.** What about the MIC ([1]; in presence of compound at 30 μM, AB5075, read-out: Daptomycm MIC) of the same compound?
**A.** 64 µg/mL

**Q.** What about the “Fold Increase (colistin MIC)” value [1, 2] of the same compound?
**A.** 0 fold

**Q.** What about the potentiation of vancomycin ([1]; AB5075) of the same compound?
**A.** no potentiation activity observed

**Q.** And the “reduction in vancomycin MIC (fold)” value ([1]; AB5075)?
**A.** 64 fold

**Q.** And the “Fold Reduction (daptomycin MIC)” value [1, 3]?
**A.** 32 fold

**Q.** What about the “Fold Reduction (vancomycin MIC)” value [1, 3] of the same compound?
**A.** 256 fold

**Q.** And the “Fold reduction (clarithromycin MIC)” value [1, 3]?
**A.** 128 fold

**Q.** What about the “Josamycin MIC” value ([1]; AB5075) of the same compound?
**A.** 4 µg/mL

**Q.** What about the “Oleandomycin MIC” value ([1]; AB5075) of the same compound?
**A.** 128 µg/mL

**Q.** What about the “Spiramycin MIC” value ([1]; AB5075) of the same compound?
**A.** 64 µg/mL

**Q.** What about the “Troleandomycin MIC” value ([1]; AB5075) of the same compound?
**A.** 16 µg/mL

**Q.** What about the “Amikacin MIC” value ([1]; AB5075) of the same compound?
**A.** 128 µg/mL

**Q.** What about the “Gentamicin MIC” value ([1]; AB5075) of the same compound?
**A.** >512 µg/mL

**Q.** And the “Kanamycin MIC” value ([1]; AB5075)?
**A.** >512 µg/mL

**Q.** And the “Neomycin MIC” value ([1]; AB5075)?
**A.** 64 µg/mL

**Q.** What about the “Streptomycin MIC” value ([1]; AB5075) of the same compound?
**A.** 512 µg/mL

**Q.** What about the “Tobramycin MIC” value ([1]; AB5075) of the same compound?
**A.** 64 µg/mL

**Q.** And the “Azithromycin MIC” value [1, 4]?
**A.** 64 µg/mL

**Q.** And the “Vancomycin MIC” value [1, 4]?
**A.** 128 µg/mL

**Q.** What about the “Azithromycin MIC” value [1, 5] of the same compound?
**A.** 64 µg/mL

**Q.** And the “Vancomycin MIC” value [1, 5]?
**A.** 256 µg/mL

**Q.** What about the “Azithromycin MIC” value [1, 6] of the same compound?
**A.** 32 µg/mL

**Q.** And the “Colistin MIC” value [1, 6]?
**A.** 0.5 µg/mL

**Q.** What about the “Vancomycin MIC” value [1, 6] of the same compound?
**A.** 128 µg/mL

**Q.** And the “Azithromycin MIC” value [1, 7]?
**A.** 8 µg/mL

**Q.** What about the “Vancomycin MIC” value [1, 7] of the same compound?
**A.** 32 µg/mL

**Q.** And the “Azithromycin MIC” value [1, 8]?
**A.** 16 µg/mL

**Q.** What about the “Vancomycin MIC” value [1, 8] of the same compound?
**A.** 4 µg/mL

**Q.** And the “Azithromycin MIC” value [1, 9]?
**A.** 8 µg/mL

**Q.** And the “Colistin MIC” value [1, 9]?
**A.** 4 µg/mL

**Q.** What about the “Linezolid MIC” value [1, 9] of the same compound?
**A.** 256 µg/mL

**Q.** What about the “Vancomycin MIC” value [1, 9] of the same compound?
**A.** 1 µg/mL

**Q.** And the “Fold reduction of josamycin MIC” value ([1]; AB5075)?
**A.** 32 fold
